In publication PMC10916402, “Meropenem-ANT3310, a unique β-lactam-β-lactamase inhibitor combination with expanded antibacterial spectrum against Gram-negative pathogens including carbapenem-resistant Acinetobacter baumannii” (Antimicrobial Agents and Chemotherapy, 2024):
In brackets after ≈: the same amount, converted by molar mass. Read-outs that look alike come from different tables or passages of the source.

Legend:
[1] = tested on: OXA-producing Enterobacterales (OXA-CRE); test: organism not typed; assay type: cell-based
Description: (§1) All isolates were randomly selected from the frozen culture collection of IHMA collected in 2018 and 2019. Matrix-assisted laser desorption ionization-time of flight mass spectrometry was used to confirm the identity of the organisms tested (Bruker Daltonics, Bremen, Germany).
(§2) MICs for all antimicrobial agents were determined at IHMA by broth microdilution in accordance with both CLSI ([17]) and EUCAST ([18]) guidelines. Microtiter panels were prepared by IHMA and stored at −70°C in cation-adjusted Mueller Hinton broth (CAMHB) (Becton Dickinson). Iron-depleted CAMHB was used to test cefiderocol. Panels containing ANT3310 were prepared fresh on the day of testing. […] MIC values corresponded to the first well with no visible growth. Quality control testing was performed on each day of testing with E. coli ATCC 25922, P. aeruginosa ATCC 27853, K. pneumoniae ATCC 700603 and BAA 1705, and A. baumannii NCTC 13304. MICs were interpreted using 2023 CLSI ([17]) and EUCAST ([18]) BPs.

[2] = tested on: KPC-producing Enterobacterales (KPC-CRE); test: organism not typed; assay type: cell-based
Description: as §1, §2

[3] = tested on: P. aeruginosa clinical isolates; test: Broth microdilution MIC, P. aeruginosa clinical isolates; assay type: cell-based, Pseudomonas aeruginosa; details: 502 P. aeruginosa, 2019 global collection
Description: as §1, §2

[4] = tested on: A. baumannii clinical isolates; test: Broth microdilution MIC, A. baumannii clinical isolates; assay type: cell-based, Acinetobacter baumannii; details: for CLSI % Res: for MEM-ANT3310 % at ≥16 µg/mL; for MIC90: read-out: MIC90
Description: as §1, §2

[5] = tested on: carbapenem-resistant Acinetobacter baumannii (CRAB) clinical isolates; test: Broth microdilution MIC, CRAB isolates; assay type: cell-based; details: for Number of isolates inhibited at MIC of 0.25 µg/mL / Number of isolates inhibited at MIC of 0.5 µg/mL / Number of isolates inhibited at MIC of 1 µg/mL / Number of isolates inhibited at MIC of 2 µg/mL / Number of isolates inhibited at MIC of 4 µg/mL / Number of isolates inhibited at MIC of 8 µg/mL / Number of isolates inhibited at MIC of 16 µg/mL / Number of isolates inhibited at MIC of 32 µg/mL / Number of isolates inhibited at MIC of >32 µg/mL / Number of isolates inhibited at MIC of ≤0.125 µg/mL / MIC50 / MIC90: CRAB (MEM MICs >4 µg/mL); for CLSI % Res / CLSI % Sus: CRAB, CLSI BP; for CLSI % Res: for MEM-ANT3310 % at ≥16 µg/mL; for CLSI % Sus: for MEM-ANT3310 % inhibited at ≤8 µg/mL; for MIC90: read-out: MIC90
Description: as §1, §2

[6] = 252 OXA-producing Enterobacterales, EUCAST BP
[7] = 180 KPC-producing Enterobacterales, EUCAST BP
[8] = 2018 Global collection, All A. baumannii, N 500
[9] = 2019 Global collection, All A. baumannii, N 405

CC(C)(O/N=C(\C(=O)N[C@@H]1C(=O)N2C(C(=O)[O-])=C(C[N+]3(CCNC(=O)c4ccc(O)c(O)c4Cl)CCCC3)CS[C@H]12)c1csc(N)n1)C(=O)O [Cefiderocol, cefiderocol]
MIC50 [1]: 1 µg/mL (≈ 1.33 µM)
MIC90 [1]: 4 µg/mL (≈ 5.32 µM)
CLSI % Res ([1]; 252 OXA-producing Enterobacterales, CLSI BP, for MEM-ANT3310 % at ≥16 µg/mL): 0.4%
CLSI % Sus ([1]; 252 OXA-producing Enterobacterales, CLSI BP, for MEM-ANT3310 % inhibited at ≤8 µg/mL): 98.8%
EUCAST % Res [1, 6]: 21.8%
EUCAST % Sus [1, 6]: 78.2%
MIC50 [2]: 1 µg/mL (≈ 1.33 µM)
MIC90 [2]: 4 µg/mL (≈ 5.32 µM)
CLSI % Res ([2]; 180 KPC-producing Enterobacterales, CLSI BP, for MEM-ANT3310 % at ≥16 µg/mL): 0%
CLSI % Sus ([2]; 180 KPC-producing Enterobacterales, CLSI BP, for MEM-ANT3310 % inhibited at ≤8 µg/mL): 100%
EUCAST % Res [2, 7]: 27.2%
EUCAST % Sus [2, 7]: 72.8%
Number of isolates inhibited at MIC of 0.25 µg/mL [3]: 125
Number of isolates inhibited at MIC of 0.5 µg/mL [3]: 92
Number of isolates inhibited at MIC of 1 µg/mL [3]: 33
Number of isolates inhibited at MIC of 2 µg/mL [3]: 16
Number of isolates inhibited at MIC of 4 µg/mL [3]: 7
Number of isolates inhibited at MIC of 8 µg/mL [3]: 1
Number of isolates inhibited at MIC of 32 µg/mL [3]: 1
Number of isolates inhibited at MIC of ≤0.125 µg/mL [3]: 227
MIC50 ([3]; Pseudomonas aeruginosa, read-out: MIC50): 0.25 µg/mL (≈ 0.332 µM)
MIC90 ([3]; Pseudomonas aeruginosa, read-out: MIC90): 1 µg/mL (≈ 1.33 µM)
Number of isolates inhibited at MIC of 0.25 µg/mL [4, 8]: 83
Number of isolates inhibited at MIC of 0.5 µg/mL [4, 8]: 111
Number of isolates inhibited at MIC of 1 µg/mL [4, 8]: 78
Number of isolates inhibited at MIC of 2 µg/mL [4, 8]: 52
Number of isolates inhibited at MIC of 4 µg/mL [4, 8]: 24
Number of isolates inhibited at MIC of 8 µg/mL [4, 8]: 3
Number of isolates inhibited at MIC of 16 µg/mL [4, 8]: 3
Number of isolates inhibited at MIC of 32 µg/mL [4, 8]: 2
Number of isolates inhibited at MIC of >32 µg/mL [4, 8]: 21
Number of isolates inhibited at MIC of ≤0.125 µg/mL [4, 8]: 123
CLSI % Res ([4]; 2018 Global collection, All A. baumannii, N 500, CLSI BP): 10.6%
MIC50 [4, 9]: 0.5 µg/mL (≈ 0.665 µM)
Number of isolates inhibited at MIC of 0.25 µg/mL [4, 9]: 72
Number of isolates inhibited at MIC of 0.5 µg/mL [4, 9]: 99
Number of isolates inhibited at MIC of 1 µg/mL [4, 9]: 64
Number of isolates inhibited at MIC of 2 µg/mL [4, 9]: 35
Number of isolates inhibited at MIC of 4 µg/mL [4, 9]: 19
Number of isolates inhibited at MIC of 8 µg/mL [4, 9]: 12
Number of isolates inhibited at MIC of 16 µg/mL [4, 9]: 8
Number of isolates inhibited at MIC of 32 µg/mL [4, 9]: 2
Number of isolates inhibited at MIC of >32 µg/mL [4, 9]: 18
Number of isolates inhibited at MIC of ≤0.125 µg/mL [4, 9]: 76
CLSI % Res ([4]; 2019 Global collection, All A. baumannii, N 405, CLSI BP): 14.6%
CLSI % Sus ([4]; 2019 Global collection, All A. baumannii, N 405, CLSI BP, for MEM-ANT3310 % inhibited at ≤8 µg/mL): 76.8%
MIC50 ([4]; Acinetobacter baumannii, 2018 Global collection, All A. baumannii, N 500, read-out: MIC50): 0.5 µg/mL (≈ 0.665 µM)
MIC90 ([4]; Acinetobacter baumannii, 2018 Global collection, All A. baumannii, N 500): 4 µg/mL (≈ 5.32 µM)
MIC90 ([4]; Acinetobacter baumannii, 2019 Global collection, All A. baumannii, N 405): 4 µg/mL (≈ 5.32 µM)
MIC90 ([4]; Acinetobacter baumannii, A. baumannii, one or both of the 2018/2019 collections): 4 µg/mL (≈ 5.32 µM)
Number of isolates inhibited at MIC of 0.25 µg/mL ([5]; 2018 Global collection, N 363): 63
Number of isolates inhibited at MIC of 0.5 µg/mL ([5]; 2018 Global collection, N 363): 99
Number of isolates inhibited at MIC of 1 µg/mL ([5]; 2018 Global collection, N 363): 72
Number of isolates inhibited at MIC of 2 µg/mL ([5]; 2018 Global collection, N 363): 49
Number of isolates inhibited at MIC of 4 µg/mL ([5]; 2018 Global collection, N 363): 21
Number of isolates inhibited at MIC of 8 µg/mL ([5]; 2018 Global collection, N 363): 3
Number of isolates inhibited at MIC of 16 µg/mL ([5]; 2018 Global collection, N 363): 3
Number of isolates inhibited at MIC of 32 µg/mL ([5]; 2018 Global collection, N 363): 2
Number of isolates inhibited at MIC of >32 µg/mL ([5]; 2018 Global collection, N 363): 17
Number of isolates inhibited at MIC of ≤0.125 µg/mL ([5]; 2018 Global collection, N 363): 34
CLSI % Res ([5]; 2018 Global collection, N 363): 12.7%
CLSI % Sus ([5]; 2018 Global collection, N 363): 73.8%
MIC50 ([5]; 2019 Global collection, N 340): 0.5 µg/mL (≈ 0.665 µM)
Number of isolates inhibited at MIC of 0.25 µg/mL ([5]; 2019 Global collection, N 340): 64
Number of isolates inhibited at MIC of 0.5 µg/mL ([5]; 2019 Global collection, N 340): 93
Number of isolates inhibited at MIC of 1 µg/mL ([5]; 2019 Global collection, N 340): 61
Number of isolates inhibited at MIC of 2 µg/mL ([5]; 2019 Global collection, N 340): 34
Number of isolates inhibited at MIC of 4 µg/mL ([5]; 2019 Global collection, N 340): 19
Number of isolates inhibited at MIC of 8 µg/mL ([5]; 2019 Global collection, N 340): 9
Number of isolates inhibited at MIC of 16 µg/mL ([5]; 2019 Global collection, N 340): 8
Number of isolates inhibited at MIC of 32 µg/mL ([5]; 2019 Global collection, N 340): 2
Number of isolates inhibited at MIC of >32 µg/mL ([5]; 2019 Global collection, N 340): 18
Number of isolates inhibited at MIC of ≤0.125 µg/mL ([5]; 2019 Global collection, N 340): 32
CLSI % Res ([5]; 2019 Global collection, N 340): 16.5%
CLSI % Sus ([5]; 2019 Global collection, N 340): 73.5%
MIC50 ([5]; Acinetobacter baumannii, 2018 Global collection, N 363, read-out: MIC50): 0.5 µg/mL (≈ 0.665 µM)
MIC90 ([5]; Acinetobacter baumannii, 2018 Global collection, N 363): 4 µg/mL (≈ 5.32 µM)
MIC90 ([5]; Acinetobacter baumannii, 2019 Global collection, N 340): 8 µg/mL (≈ 10.6 µM)
